The values below come from patent US20240336981A1, “PANELS AND METHODS FOR DIAGNOSING AND TREATING LUNG CANCER” (The Broad Institute, Inc., priority 2021, published 2024).

The target in one experiment is BLK (Homo sapiens, UniProt P51451). The conditions noted are these: in vitro; cited from earlier work.
A further experiment addresses HER4 (Homo sapiens, UniProt Q15303). Particulars: in vitro; cited from earlier work.
The next experiment addresses HER2 (Homo sapiens, UniProt P04626). Particulars: in vitro; cited from earlier work.
Another experiment has as its target EGFR (Homo sapiens, UniProt P00533). The conditions noted are these: cited from earlier work.
In a further experiment the target is HER-3 (Homo sapiens, UniProt P21860). Particulars: cited from earlier work.
Sequence of HER-3 (P21860 20-1342): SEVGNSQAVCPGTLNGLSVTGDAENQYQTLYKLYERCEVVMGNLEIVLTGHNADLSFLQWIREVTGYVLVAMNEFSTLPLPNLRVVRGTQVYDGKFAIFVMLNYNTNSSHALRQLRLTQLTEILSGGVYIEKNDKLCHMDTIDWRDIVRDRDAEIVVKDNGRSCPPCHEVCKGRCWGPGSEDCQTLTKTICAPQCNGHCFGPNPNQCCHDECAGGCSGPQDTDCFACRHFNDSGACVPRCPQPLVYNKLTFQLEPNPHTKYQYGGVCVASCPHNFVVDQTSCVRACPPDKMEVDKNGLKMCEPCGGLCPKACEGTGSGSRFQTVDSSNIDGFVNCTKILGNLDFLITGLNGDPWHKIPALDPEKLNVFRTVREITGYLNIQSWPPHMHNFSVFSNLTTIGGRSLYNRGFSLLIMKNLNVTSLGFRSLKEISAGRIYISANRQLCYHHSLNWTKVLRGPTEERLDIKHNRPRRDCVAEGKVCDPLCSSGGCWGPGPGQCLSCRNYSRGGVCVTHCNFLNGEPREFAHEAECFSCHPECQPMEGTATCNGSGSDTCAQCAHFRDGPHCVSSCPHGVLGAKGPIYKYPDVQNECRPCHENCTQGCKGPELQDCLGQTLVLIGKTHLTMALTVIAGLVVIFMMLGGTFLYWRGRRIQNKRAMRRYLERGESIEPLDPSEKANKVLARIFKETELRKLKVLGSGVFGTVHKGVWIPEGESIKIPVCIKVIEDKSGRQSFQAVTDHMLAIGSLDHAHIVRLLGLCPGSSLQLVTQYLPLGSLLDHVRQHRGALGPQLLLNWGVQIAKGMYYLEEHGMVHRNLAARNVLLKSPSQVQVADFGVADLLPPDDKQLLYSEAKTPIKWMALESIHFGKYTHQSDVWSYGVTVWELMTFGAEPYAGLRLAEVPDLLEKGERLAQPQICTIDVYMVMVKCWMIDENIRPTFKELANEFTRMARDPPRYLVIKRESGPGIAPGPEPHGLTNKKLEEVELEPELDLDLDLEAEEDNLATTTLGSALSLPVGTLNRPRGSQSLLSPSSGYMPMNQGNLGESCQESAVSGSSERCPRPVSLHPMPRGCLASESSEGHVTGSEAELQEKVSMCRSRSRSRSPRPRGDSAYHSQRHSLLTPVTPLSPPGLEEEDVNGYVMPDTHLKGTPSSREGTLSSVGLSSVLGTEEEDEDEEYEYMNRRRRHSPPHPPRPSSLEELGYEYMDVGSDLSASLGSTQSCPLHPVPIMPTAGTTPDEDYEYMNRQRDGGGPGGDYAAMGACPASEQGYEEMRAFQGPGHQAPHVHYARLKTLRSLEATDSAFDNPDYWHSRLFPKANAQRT
A further experiment deals with PD-L1. Nature of the experiment: Immunofluorescence staining with anti-PD-L1 antibody. The experiment is classed as cell-based. Particulars: tivantinib-treated cells vs controls; all subtypes; quantified with ImageJ. The protocol:
The following antibody was used for immunofluorescence staining—Recombinant Alexa Fluor® 488 Anti-PD-L1 antibody (ab209959). […] Cells were then fixed in 4% paraformaldehyde for 10 min and washed twice in cold PBS. Fluor® 488 Anti-PD-L1 antibody was added for 1 hr incubation in a light protected environment at room temperature followed by staining nuclei with DAPI. Fluorescence images were captured using Invitrogen™ EVOS™ FL Imaging System by Thermo Fisher Scientific. The fluorescent increase was further quantified using ImageJ software.

The test system of experiment [1] is lung adenocarcinoma (LUAD) cell lines. Briefly: Proliferation assay (IncuCyte confluency). The experiment is classed as cell-based. The conditions noted are these: for proliferation (response) of S3 cell lines compared to the S4 and unassigned cell lines: S3 lines HCC78, HCC827, NCIH1975, NCIH1838, 4 days. The text has this: lung adenocarcinoma (LUAD) cell lines were used (HCC78, HCC827, NCIH1975, NCIH1838, NCIH1395, NCIH1833, NCIH1755, ABC1, CALU3). Tests for mycoplasma contamination were negative. Cells were maintained in RPMI 1640 medium supplemented with 10% fetal bovine serum and 1% penicillin-streptomycin.
The media and drugs were replenished every 2-3 days. Continuous cell growth was monitored in 96-well plates every 3 hr for 4 days using the IncuCyte Kinetic Imaging System. The relative confluency was analyzed using IncuCyte software. The reported response percentage for each cell line was calculated as the percent of confluency compared to their DMSO treated counterpart. Proliferation assays were repeated 4 times.

The test system of the next experiment is CDK3 and CDK7. The conditions noted are these: cited from earlier work.
The test system of the next experiment is non-CDK kinases. The conditions noted are these: with the exception of GSK3beta; cited from earlier work.
For experiment [2], the system named is tumor-bearing animal models such as breast, colon, lung cancers, and hepatocellular carcinoma. Particulars: in vivo; cited from earlier work.
The subject of experiment [3] is mutant forms of EGFR (T790M, L858R, and exon 19 deletion). The conditions noted are these: exon 19 deletion vs wild-type; cited from earlier work.

Structures are written as SMILES. pIC50: −log10 of the molar value.

Sequence of HER2 (P04626 23-1255): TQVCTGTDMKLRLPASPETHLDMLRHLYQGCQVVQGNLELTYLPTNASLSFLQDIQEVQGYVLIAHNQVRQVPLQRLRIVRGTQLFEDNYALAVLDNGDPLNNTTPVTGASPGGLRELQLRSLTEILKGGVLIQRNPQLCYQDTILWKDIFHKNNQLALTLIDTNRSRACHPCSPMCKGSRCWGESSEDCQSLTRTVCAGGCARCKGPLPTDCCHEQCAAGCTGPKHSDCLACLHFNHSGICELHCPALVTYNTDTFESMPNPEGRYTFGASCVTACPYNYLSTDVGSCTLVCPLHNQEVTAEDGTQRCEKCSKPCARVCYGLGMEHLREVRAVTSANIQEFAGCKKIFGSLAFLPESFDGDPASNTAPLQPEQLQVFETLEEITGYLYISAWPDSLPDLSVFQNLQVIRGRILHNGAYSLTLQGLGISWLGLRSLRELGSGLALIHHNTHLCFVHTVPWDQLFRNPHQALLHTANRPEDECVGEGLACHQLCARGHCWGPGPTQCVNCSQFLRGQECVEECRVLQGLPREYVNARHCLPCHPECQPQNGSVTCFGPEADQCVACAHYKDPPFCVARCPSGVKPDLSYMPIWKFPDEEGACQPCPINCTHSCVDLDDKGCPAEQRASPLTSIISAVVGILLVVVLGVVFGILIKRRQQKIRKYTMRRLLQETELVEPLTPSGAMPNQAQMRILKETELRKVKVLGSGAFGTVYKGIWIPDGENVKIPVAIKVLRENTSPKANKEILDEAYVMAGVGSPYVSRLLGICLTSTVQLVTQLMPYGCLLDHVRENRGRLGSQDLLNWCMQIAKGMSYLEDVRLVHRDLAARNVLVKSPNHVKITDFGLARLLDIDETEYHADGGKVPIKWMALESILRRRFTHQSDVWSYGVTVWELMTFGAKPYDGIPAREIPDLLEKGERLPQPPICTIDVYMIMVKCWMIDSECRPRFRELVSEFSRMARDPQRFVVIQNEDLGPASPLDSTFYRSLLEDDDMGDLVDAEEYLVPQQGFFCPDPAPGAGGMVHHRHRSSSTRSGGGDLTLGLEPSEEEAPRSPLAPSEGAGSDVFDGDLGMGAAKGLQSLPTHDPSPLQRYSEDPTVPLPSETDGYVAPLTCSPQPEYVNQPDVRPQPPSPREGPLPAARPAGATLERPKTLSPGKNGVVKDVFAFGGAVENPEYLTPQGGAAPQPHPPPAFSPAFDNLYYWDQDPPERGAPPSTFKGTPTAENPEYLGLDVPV
Sequence of HER4 (Q15303 26-1308): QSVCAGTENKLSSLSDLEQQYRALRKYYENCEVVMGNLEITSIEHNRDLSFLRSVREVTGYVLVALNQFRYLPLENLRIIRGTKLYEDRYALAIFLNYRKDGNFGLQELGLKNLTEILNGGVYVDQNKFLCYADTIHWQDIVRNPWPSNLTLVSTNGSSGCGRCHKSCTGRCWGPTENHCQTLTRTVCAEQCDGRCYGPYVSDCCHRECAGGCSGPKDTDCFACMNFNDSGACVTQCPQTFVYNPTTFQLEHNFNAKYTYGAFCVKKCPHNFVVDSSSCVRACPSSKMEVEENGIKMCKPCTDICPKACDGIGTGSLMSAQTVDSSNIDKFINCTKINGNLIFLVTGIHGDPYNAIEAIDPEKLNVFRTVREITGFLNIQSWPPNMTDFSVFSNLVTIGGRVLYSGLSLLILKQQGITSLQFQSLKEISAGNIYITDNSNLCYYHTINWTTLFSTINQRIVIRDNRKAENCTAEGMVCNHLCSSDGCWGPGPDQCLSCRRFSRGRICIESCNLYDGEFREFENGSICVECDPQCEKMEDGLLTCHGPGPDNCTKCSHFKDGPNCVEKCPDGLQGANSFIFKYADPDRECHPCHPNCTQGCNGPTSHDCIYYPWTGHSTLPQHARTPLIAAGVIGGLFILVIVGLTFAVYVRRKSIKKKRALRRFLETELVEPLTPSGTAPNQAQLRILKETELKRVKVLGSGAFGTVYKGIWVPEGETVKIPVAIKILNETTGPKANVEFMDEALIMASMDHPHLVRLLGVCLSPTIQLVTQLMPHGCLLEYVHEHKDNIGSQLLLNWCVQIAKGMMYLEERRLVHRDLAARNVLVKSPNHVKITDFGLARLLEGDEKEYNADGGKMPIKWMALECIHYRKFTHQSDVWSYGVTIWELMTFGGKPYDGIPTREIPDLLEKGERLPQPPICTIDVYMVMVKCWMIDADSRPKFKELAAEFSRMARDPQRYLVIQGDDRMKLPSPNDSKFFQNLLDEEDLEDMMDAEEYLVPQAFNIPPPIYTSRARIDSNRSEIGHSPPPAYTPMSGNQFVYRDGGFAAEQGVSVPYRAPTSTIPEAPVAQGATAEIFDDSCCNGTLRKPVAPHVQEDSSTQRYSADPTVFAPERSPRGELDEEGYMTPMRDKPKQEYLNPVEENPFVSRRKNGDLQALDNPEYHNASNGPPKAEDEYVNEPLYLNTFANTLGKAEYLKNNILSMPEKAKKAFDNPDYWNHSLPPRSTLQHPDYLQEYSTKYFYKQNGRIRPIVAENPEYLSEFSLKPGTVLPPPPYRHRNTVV
Sequence of BLK (P51451 whole entry): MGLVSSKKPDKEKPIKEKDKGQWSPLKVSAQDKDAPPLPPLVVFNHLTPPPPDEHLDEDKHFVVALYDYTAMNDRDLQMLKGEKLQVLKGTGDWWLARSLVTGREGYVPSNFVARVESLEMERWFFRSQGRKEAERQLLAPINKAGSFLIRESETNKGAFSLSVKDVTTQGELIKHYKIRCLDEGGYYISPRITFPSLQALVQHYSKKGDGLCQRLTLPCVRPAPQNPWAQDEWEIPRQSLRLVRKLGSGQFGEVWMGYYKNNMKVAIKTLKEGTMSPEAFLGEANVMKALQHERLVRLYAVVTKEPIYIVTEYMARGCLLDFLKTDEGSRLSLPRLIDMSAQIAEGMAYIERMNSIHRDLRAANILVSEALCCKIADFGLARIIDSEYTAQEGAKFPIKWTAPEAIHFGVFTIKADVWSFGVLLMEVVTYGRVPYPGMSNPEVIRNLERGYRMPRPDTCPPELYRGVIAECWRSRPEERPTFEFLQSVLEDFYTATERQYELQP

As a reminder, the pIC50 is −log10 of the IC50, conventionally taken in molar units. Turning to `C=CC(=O)Nc1cc(Nc2ncc(C(=O)OC(C)C)c(-c3cn(C)c4ccccc34)n2)c(OC)cc1N(C)CCN(C)C` [Mobocertinib], the pIC50 on BLK, at HER4 and on HER2 was above 8.70 in each case.
As for `CNC(=O)c1ccc(-c2cnc3ncc(Cc4ccc5ncccc5c4)n3n2)cc1F` [Capmatinib], the “activity against EGFR” value at EGFR was “ATP-competitive small molecule. Targets - c-Met. Little activity against EGFR and HER- 3”. Further, the “activity against HER-3” value at HER-3 was “ATP-competitive small molecule. Targets - c-Met. Little activity against EGFR and HER- 3”.
For the compound `O=C1NC(=O)[C@@H](c2cn3c4c(cccc24)CCC3)[C@@H]1c1c[nH]c2ccccc12` [Tivantinib], in the experiment on PD-L1, the “PD-L1 levels in response to c-MET inhibition” value is listed as “significant increase”. Moreover, in experiment [1] (Tivantinib 3 μM, 4-day proliferation assay, confluency vs DMSO), the “response of S3 compared to the other assigned groups” value is reported as “significantly increased response”.
For `CCNc1cc(N[C@H]2CC[C@H](O)CC2)nc(Nc2ccc3c(ccn3Cc3ccccc3)c2)n1` [CINK4], the “proliferation (response) of S3 cell lines compared to the S4 and unassigned cell lines” value in experiment [1] (CDK4/6 Inhibitor IV 1.5 μM (CDK4 specific concentration), confluency vs DMSO) is reported as “significantly lower proliferation (higher response)”.
For the compound `O=C(NC1CCNCC1)c1n[nH]cc1NC(=O)c1c(Cl)cccc1Cl` [AT7519], in the experiment with CDK3 and CDK7, the “potency against other CDKs tested” value is reported as “lower potency”. For the same compound, in the experiment with non-CDK kinases, the “activity against non-CDK kinases tested” value was “inactive”.
Consider `Cc1cccc(-c2nn3c(c2-c2ccnc4ccc(C(N)=O)cc24)CCC3)n1` [Galunisertib], for which the antitumor activity result in experiment [2] was “antitumor activity”.
`CC(=O)c1c(C)c2cnc(Nc3ccc(N4CCNCC4)cn3)nc2n(C2CCCC2)c1=O` [Palbociclib]: the “proliferation (response) of S3 cell lines compared to the S4 and unassigned cell lines” value in experiment [1] (Palbociclib 11 nM (CDK4 concentration), confluency vs DMSO) is “significantly lower proliferation (higher response)”. Moreover, the “proliferation at higher doses” value in experiment [1] (higher doses of palbociclib (CDK4/6 concentration 16 nM), all cell lines) is “inhibited proliferation in all cell lines”.
As for `C=CC(=O)Nc1cc(Nc2nccc(-c3cn(C)c4ccccc34)n2)c(OC)cc1N(C)CCN(C)C` [Osimertinib], in [3], the “concentrations for binding mutant EGFR lower than wild-type” value is “approximately 9 fold”.
